Measurements: patent US20100248965A1, “HERBICIDAL COMBINATION” (Bayer CropScience AG, priority 2007, published 2010)
Values joined by “and” are separate entries in the source; they are usually repeats but may differ in a detail not shown here. Equal entries are not always repeated.

What was measured:
Format in all cases: in vivo
[1] = system: Polygonum convolvulus; test: Post-emergence action against weeds (greenhouse, visual scoring): Polygonum convolvulus; settings: scored 11 days after application
Protocol: (§1) Seeds or rhizome pieces of monocotyledonous and dicotyledonous weeds were placed in sandy loam soil in plastic pots, covered with soil and cultivated in a greenhouse under good growth conditions. Three weeks after sowing, the test plants were treated at the 2- to 4-leaf stage. The compounds according to the invention, formulated as wettable powders or as emulsion concentrates, were sprayed onto the green parts of the plants in various dosages at a water application rate of 100 to 800 l/ha (converted).
(§2) Scoring was carried out 11 days after the application of the sprays. In the case of the combination with B7-16 (table 1-15), the weed was Polygonum spp. and scoring was carried out 20 days after application.
(§3) The control of the weed was scored according to the scheme below.

[2] = system: Veronica persica; test: Post-emergence action against weeds (greenhouse, visual scoring): Veronica persica; settings: scored 10 days after application
Protocol: as §1, with “(converted). After the test plants had been left to stand in the greenhouse for 10 to 28 days under optimum growth conditions, the effect of the preparations was scored visually in comparison to untreated controls.” for “(converted).”
In an exemplary manner, tables 2-1 to 2-4 below show the improved control of the weed Veronica persica by application of the herbicide combinations according to the invention using the combination of the compound A-2 (sodium salt of 2-iodo-N-[(4-methoxy-6-methyl-1,3,5-triazin-2-yl)carbamoyl]benzenesulfonamide) and selected herbicides from group B, i.e. the herbicides amidosulfuron (=B7-1), ethoxysulfuron (=B7-9), flucarbazone-sodium (B8-1), and sulfosulfuran (B7-28), as an example.
Scoring was carried out 10 days after the application of the sprays according to the scheme below: […]

[3] = system: Polygonum spp.; test: Post-emergence action against weeds (greenhouse, visual scoring): Polygonum spp.; settings: scored 20 days after application
Protocol: as §1, §2, §3

[4] = 2.5 g of ai/ha, 0%=no control, 100%=complete control

With CCOC(=O)Nc1cccc(OC(=O)Nc2ccccc2)c1 [Compound B5-5, desmedipham] the “Polygonum convolvulus Control in %” value ([1]; 50 g of ai/ha) was 28%.

COc1cc(OC)nc(NC(=O)NS(=O)(=O)N(C)S(C)(=O)=O)n1 [Compound B7-1, amidosulfuron] was tested, and the “Veronica persica Control in %” value ([2]; 5 g of ai/ha) was 0%.

In the case of CCOc1ccccc1OS(=O)(=O)NC(=O)Nc1nc(OC)cc(OC)n1 [Compound B7-9, ethoxysulfuron], the “Veronica persica Control in %” value ([2]; 5 g of ai/ha) is reported as 8%.

COc1cc(OC)nc(NC(=O)NS(=O)(=O)c2cc(NC=O)ccc2C(=O)N(C)C)n1 [Compound B7-13, foramsulfuron] was tested, and the “Polygonum convolvulus Control in %” value ([1]; 10 g of ai/ha) was 15%.

In the case of COC(=O)c1ccc(I)cc1S(=O)(=O)[N-]C(=O)Nc1nc(C)nc(OC)n1.[Na+] [Compound B7-16, iodosulfuron-methyl-sodium], the “Polygonum spp. Control in %” value ([3]; 2 g of ai/ha) is reported as 73%.

For COC(=O)c1ccc(CNS(C)(=O)=O)cc1S(=O)(=O)NC(=O)Nc1nc(OC)cc(OC)n1 [Compound B7-17, mesosulfuron-methyl], the “Polygonum convolvulus Control in %” value ([1]; 5 g of ai/ha) was 20%.

For COC(=O)c1ccccc1S(=O)(=O)NC(=O)Nc1nc(C)nc(OC)n1 [Compound B7-18, metsulfuron-methyl], the “Polygonum convolvulus Control in %” value [1, 4] was 70%.

For CCS(=O)(=O)c1nc2ccccn2c1S(=O)(=O)NC(=O)Nc1nc(OC)cc(OC)n1 [Compound B7-28, sulfosulfuron], the “Polygonum convolvulus Control in %” value ([1]; 7.5 g of ai/ha) was 78% and the “Veronica persica Control in %” value ([2]; 7.5 g of ai/ha) was 30%.

COC(=O)c1sccc1S(=O)(=O)NC(=O)Nc1nc(C)nc(OC)n1 [Compound B7-29, thifensulfuron-methyl] was tested, and the “Polygonum convolvulus Control in %” value ([1]; 7.5 g of ai/ha) was 87%.

With COC(=O)c1ccccc1S(=O)(=O)NC(=O)N(C)c1nc(C)nc(OC)n1 [Compound B7-31, tribenuron-methyl] the “Polygonum convolvulus Control in %” value ([1]; 10 g of ai/ha) was 80%.

In the case of COc1nc(NC(=O)NS(=O)(=O)c2ccccc2C(F)(F)F)nc(C(F)(F)F)n1 [Compound B7-34, tritosulfuron], the “Polygonum convolvulus Control in %” value ([1]; 10 g of ai/ha) is reported as 58%.

With CCCc1ccc2nc(Cl)c(S(=O)(=O)NC(=O)Nc3nc(OC)cc(OC)n3)n2n1 [Compound B7-38] the “Polygonum convolvulus Control in %” value ([1]; 30 g of ai/ha) was 0%.

COc1nn(C(=O)[N-]S(=O)(=O)c2ccccc2OC(F)(F)F)c(=O)n1C.[Na+] [Compound B8-1, flucarbazone-sodium] was tested, and the “Polygonum convolvulus Control in %” value ([1]; 10 g of ai/ha) was 55% and the “Veronica persica Control in %” value ([2]; 10 g of ai/ha) was 15%.

CCCOc1nn(C(=O)[N-]S(=O)(=O)c2ccccc2C(=O)OC)c(=O)n1C.[Na+] [Compound B8-2, propoxycarbazone-sodium] was tested, and the “Polygonum convolvulus Control in %” value ([1]; 10 g of ai/ha) was 38%.

In the case of COC(=O)c1csc(C)c1S(=O)(=O)NC(=O)n1nc(OC)n(C)c1=O [Compound B8-3, thiencarbazone-methyl], the “Polygonum convolvulus Control in %” value ([1]; 1 g of ai/ha) is reported as 50%.

For COc1ncc(F)c2nc(S(=O)(=O)Nc3c(F)cccc3F)nn12 [Compound B9-3, florasulam], the “Polygonum convolvulus Control in %” value [1, 4] was 73%.

In the case of COc1cc(OC)n2nc(NS(=O)(=O)c3c(C(F)(F)F)ccnc3OC)nc2n1 [Compound B9-7, pyroxsulam], the “Polygonum convolvulus Control in %” value [1, 4] is reported as 75%.

For “sodium salt of 2-iodo-N-[(4-methoxy-6-methyl-1,3,5-triazin-2-yl)carbamoyl]benzenesulfonamide [Compound A-2]”, the “Polygonum convolvulus Control in %” value [1, 4] was 10% and 0%, the “Polygonum spp. Control in %” value ([3]; 2.5 g of ai/ha) was 0% and the “Veronica persica Control in %” value ([2]; 2.5 g of ai/ha, 0%=No control, 100%=Complete control) was 10% and 0%.
